In brackets after ≈: the same amount, converted by molar mass. Several values for one entry are separate records, joined by “and”; a condition that tells them apart may be missing. Equal values may be shown once. Read-outs that look alike come from different tables or passages of the source.
Experiments:
[1] = system: M.tb isolates from BALB/c mice after four months of treatment; assay: microbe, parasite or virus in culture; type: cell-based; conditions: Mycobacterium tuberculosis, read-out: minimum inhibitory concentration
[2] = for rifampin area under curve (0–18 h): rifampin 10 mg/kg
M.tb H37Rv = assay: Relapse 3 months after ending treatment, BALB/c mice; type: in vivo
wild type H37Rv = assay: microbe, parasite or virus in culture; type: cell-based; conditions: Mycobacterium tuberculosis, read-out: minimal inhibitory concentration
[3] = system: bone marrow-derived macrophages (BMDM) from BALB/c and C3HeB/FeJ mice; type: cell-based
[4] = Observation of adverse effects in mice during the study period; type: in vivo; conditions: tofacitinib 30 mg/kg/day (the higher dose)
[5] = system: JAK tyrosine kinase activity; conditions: ref Dowty et al., 2014; cited from earlier work
[6] = human, recommended doses; ref Dowty et al., 2014; cited from earlier work

CO[C@H]1/C=C/O[C@@]2(C)Oc3c(C)c(O)c4c(O)c(c(/C=N/N5CCN(C)CC5)c(O)c4c3C2=O)NC(=O)/C(C)=C\C=C\[C@H](C)[C@H](O)[C@@H](C)[C@@H](O)[C@@H](C)[C@H](OC(C)=O)[C@@H]1C [rifampin]
MIC [1]: 0.25 µg/mL (≈ 0.304 µM) | rifampin area under curve (0–18 h) ([2]; mouse serum, co-administered tofacitinib 15 mg/kg): 77 μg/ml·H | rifampin area under curve (0–18 h) ([2]; mouse serum, co-administered tofacitinib 22.5 mg/kg): 93 μg/ml·H | rifampin area under curve (0–18 h) ([2]; mouse serum, co-administered tofacitinib 30 mg/kg): 103 μg/ml·H

C[C@@H]1CCN(C(=O)CC#N)C[C@@H]1N(C)c1ncnc2[nH]ccc12 [tofacitinib]
relapse rate, Std-Rx plus tofacitinib versus Std-Rx alone (M.tb H37Rv): did not differ | MIC (wild type H37Rv): > 64 µg/mL | effect on cytokine levels (TNF-α, IL-1β) of BMDMs [3]: did not alter the cytokine levels | adverse effects in mice [4]: did not observe any adverse effects | peak tofacitinib serum concentration in mice during PK experiments ([2]; as stated in section 3.3): 3 µg/mL | effect of tofacitinib co-administration on the serum concentration of rifampin ([2]; mice, tofacitinib 15, 22.5, 30 mg/kg/day with rifampin 10 mg/kg): no effect | concentration of tofacitinib 2 h after the dose ([2]; mouse serum, with or without co-administration of rifampin, all doses tested): 250 to 500 ng/mL | average exposure in mice relative to patients with rheumatoid arthritis on 10 mg per day ([2]; tofacitinib 30 mg/kg/day in two divided doses): at least three to five | concentration of tofacitinib required to inhibit JAK tyrosine kinase activity [5]: 100 nM and 31.2 ng/mL | elimination half-life [6]: ~ 3 h

NNC(=O)c1ccncc1 [isoniazid]
MIC [1]: 0.04 µg/mL (≈ 0.292 µM)
